Data reported in the NIST ThermoML archive (doi:10.1021/je300742t).
± gives the expanded uncertainty stated by the source.

Settings: 298.15 K, 101.33 kPa, Liquid; for viscosity: Capillary tube (Ostwald / Ubbelohde) method; for speed of sound: Sing-around technique in a fixed-path interferometer; for mass density: Vibrating tube method

viscosity [mPa·s]	speed of sound [m/s]	mass density [kg/m3]	Structure (SMILES)
18.74 ± 0.13	1719.2 ± 1.7	1011.98 ± 0.3	NCCO [2-aminoethan-1-ol]
1.681 ± 0.013	1545.2 ± 1.7	1028.3 ± 0.31	CN1CCCC1=O [N-methylpyrrolidone]
